Where two headings read alike, the source gives them in different places.
Test system: colorectal cancer cell lines (e.g. DLD-1, HCT 116, SW620, HCT-15, HCT-8, RKO)
Test: Cell based assay, cell viability (CellTiter-Glo), colorectal cancer cell lines
Protocol: Commercially available bladder cancer, prostate cancer, lung cancer, breast cancer, blood cancer, pancreatic cancer, colorectal cancer, brain cancer, neuroblastoma, melanoma, liver cancer, cervical carcinoma, ovarian cancer, renal cancer, and papilloma cell lines were each treated with trypsin-EDTA and cultured, followed by being seeded in each well of a 96 well plate. After 24 hours of treatment at constant temperature, the respective cells were treated with the candidate compound so that a final concentration became 0 to 2 μM. The treated cells were additionally cultured for 72 hours, and cell viability was measured by using an ATP detection method (CellTiter-Glo® Luminescent Cell Viability Assay, Promega).

[1] = Homo sapiens, DLD-1, 72 hours treatment, read-out: IC50, colorectal cancer cell line DLD-1
[2] = Homo sapiens, HCT 116, 72 hours treatment, read-out: IC50, colorectal cancer cell line HCT 116
[3] = Homo sapiens, HCT-8, 72 hours treatment, read-out: IC50, colorectal cancer cell line HCT-8
[4] = Homo sapiens, HCT-15, 72 hours treatment, read-out: IC50, colorectal cancer cell line HCT-15
[5] = Homo sapiens, HT-29, 72 hours treatment, read-out: IC50, colorectal cancer cell line HT-29
[6] = Homo sapiens, LoVo, 72 hours treatment, read-out: IC50, colorectal cancer cell line LoVo
[7] = Homo sapiens, SW480, 72 hours treatment, read-out: IC50, colorectal cancer cell line SW480
[8] = Homo sapiens, SW-620, SW620, 72 hours treatment, read-out: IC50, colorectal cancer cell line SW620
[9] = RKO, 72 hours treatment, read-out: IC50, colorectal cancer cell line RKO
[10] = Homo sapiens, DLD-1 cells, 72 hours treatment, read-out: IC50, colorectal cancer cell line DLD-1
[11] = Homo sapiens, HCT 116 cells, 72 hours treatment, read-out: IC50, colorectal cancer cell line HCT 116
[12] = Homo sapiens, HCT-8 cells, 72 hours treatment, read-out: IC50, colorectal cancer cell line HCT-8
[13] = Homo sapiens, HCT-15 cells, 72 hours treatment, read-out: IC50, colorectal cancer cell line HCT-15
[14] = Homo sapiens, HT-29 cells, 72 hours treatment, read-out: IC50, colorectal cancer cell line HT-29
[15] = Homo sapiens, LoVo cells, 72 hours treatment, read-out: IC50, colorectal cancer cell line LoVo
[16] = Homo sapiens, RKO cells, 72 hours treatment, read-out: IC50, colorectal cancer cell line RKO
[17] = Homo sapiens, SW480 cells, 72 hours treatment, read-out: IC50, colorectal cancer cell line SW480
[18] = Homo sapiens, SW-620, SW620 cells, 72 hours treatment, read-out: IC50, colorectal cancer cell line SW620

SMILES	IC50 [1] [µM]	IC50 [2] [µM]	IC50 [3] [µM]	IC50 [4] [µM]	IC50 [5] [µM]	IC50 [6] [µM]	IC50 [7] [µM]	IC50 [8] [µM]	IC50 [9] [µM]	IC50 [10] [µM]	IC50 [11] [µM]	IC50 [12] [µM]	IC50 [13] [µM]	IC50 [14] [µM]	IC50 [15] [µM]	IC50 [16] [µM]	IC50 [17] [µM]	IC50 [18] [µM]
CC(=O)c1c(S(=O)(=O)Cc2ccccc2)nc2c(Br)ccc(Cl)c2c1O [Compound 54, 1-(2-(benzylsulfonyl)-8-bromo-5-chloro-4-hydroxyquinolin-3-yl)ethan-1-one]	> 2	> 2	> 2	> 2	> 10	> 2	> 2	> 2	> 2	–	–	–	–	–	–	–	–	–
COc1cccc2[nH]c(SCc3ccc(S(F)(F)(F)(F)F)cc3)c(C(C)=O)c(=O)c12 [Compound 92, 3-acetyl-5-methoxy-2-((4-(pentafluoro--sulfanyl)benzyl)thio)quinolin-4(1H)-one]	–	–	–	–	–	–	–	–	–	> 2	> 2	> 2	> 2	> 10	> 2	> 2	> 2	> 2
CC(=O)c1c([S+]([O-])C(C)C)[nH]c2c(Br)ccc(Cl)c2c1=O (stereo not drawn) [Compound 25, 3-acetyl-8-bromo-5-chloro-2-(isopropylsulfinyl)quinolin-4(1H)-one]	> 2	> 2	> 2	> 2	> 10	> 2	> 2	> 2	> 2	–	–	–	–	–	–	–	–	–
COc1ccccc1Sc1[nH]c2c(Br)ccc(Cl)c2c(=O)c1C(C)=O [Compound 14, 3-acetyl-8-bromo-5-chloro-2-((2-methoxyphenyl)thio)quinolin-4(1H)-one]	> 2	> 2	> 2	> 2	> 10	> 2	> 2	> 2	> 2	–	–	–	–	–	–	–	–	–
CC(=O)c1c([S+]([O-])Cc2ccc(C#N)s2)[nH]c2c(Br)ccc(Cl)c2c1=O (stereo not drawn) [Compound 98, 5-(((3-acetyl-8-bromo-5-chloro-4-oxo-1,4-dihydroquinolin-2-yl)sulfinyl)methyl)thiophene-2-carbonitrile]	–	–	–	–	–	–	–	–	–	1.52	1.48	1.66	1.73	> 10	> 2	1.34	> 2	1.76
CC(=O)c1c(S/C=C\C(=O)O)[nH]c2c(Br)ccc(Cl)c2c1=O [Compound 67, (Z)-3-((3-acetyl-8-bromo-5-chloro-4-oxo-1,4-dihydroquinolin-2-yl)thio)acrylic acid]	> 2	> 2	> 2	> 2	> 10	> 2	> 2	> 2	> 2	–	–	–	–	–	–	–	–	–
CC(=O)c1c(SCc2cccc(C#N)c2)[nH]c2c(Br)ccc(Cl)c2c1=O [Compound 27, 3-(((3-acetyl-8-bromo-5-chloro-4-oxo-1,4-dihydroquinolin-2-yl)thio)methyl)benzonitrile]	> 2	> 2	> 2	> 2	> 10	> 2	> 2	> 2	> 2	–	–	–	–	–	–	–	–	–
CC(=O)c1c([S+](C)[O-])n(C(=O)c2ccc(Br)cc2)c2c(Br)ccc(Cl)c2c1=O (stereo not drawn) [Compound 9, 3-acetyl-8-bromo-1-(4-bromobenzoyl)-5-chloro-2-(methylsulfinyl)quinolin-4(1H)-one]	0.87	1.05	1.75	1.24	> 10	> 2	1.28	1.36	1.93	–	–	–	–	–	–	–	–	–
CC(=O)c1c([S+]([O-])Cc2ccc(SC(F)(F)F)cc2)[nH]c2c(Cl)ccc(Cl)c2c1=O (stereo not drawn) [Compound 79, 3-acetyl-5,8-dichloro-2-((4-((trifluoromethyl)thio)benzyl)sulfinyl)quinolin-4(1H)-one]	> 2	> 2	> 2	> 2	> 10	> 2	> 2	> 2	> 2	–	–	–	–	–	–	–	–	–
CC(=O)c1c(SCc2cc(Cl)ccc2Cl)[nH]c2c(Br)ccc(Cl)c2c1=O [Compound 43, 3-acetyl-8-bromo-5-chloro-2-((2,5-dichlorobenzyl)thio)quinolin-4(1H)-one]	> 2	> 2	> 2	> 2	> 10	> 2	> 2	> 2	> 2	–	–	–	–	–	–	–	–	–
CC(=O)c1c([S+]([O-])Cc2ccc(S(F)(F)(F)(F)F)cc2F)[nH]c2c(Br)ccc(Cl)c2c1=O (stereo not drawn) [Compound 69, 3-acetyl-8-bromo-5-chloro-2-((2-fluoro-4-(pentafluoro-16-sulfanyl)benzyl)sulfinyl)quinolin-4(1H)-one]	0.92	1.52	1.91	1.42	> 10	> 2	> 2	1.77	1.54	–	–	–	–	–	–	–	–	–

From US11464770B2, “Anticancer pharmaceutical composition” (NATIONAL CANCER CENTER, priority 2016, dated 2022)
